Assay results: patent EP0609518A1, “Optically active aminopyridine derivative and use thereof” (THE GREEN CROSS CORPORATION, priority 1992, dated 1994)

Experiments:
[1] = test system: male spontaneously hypertensive rat; experiment: Antihypertensive action (systolic pressure by tail-cuff method); assay type: in vivo; settings: 3 mg/kg p.o., dissolved in brine, at 1 hour from the oral administration
Procedure: The compound (hydrochloride) of the present invention obtained in Example 1 was dissolved in brine, and forcibly administered (p.o.) to male spontaneously hypertensive rat at 3 mg/kg. The systolic pressure was measured with a programmable sphygmonanometer (PS-200A, manufactured by Riken Kaihatsu, Japan) by tail-cuff method [Ohkubo H et al. Proc. Natl. Acad. Sci. USA, 87, 5153-5157 (1990)].

[2] = test system: rat; experiment: Toxicity by single administration to rat; assay type: in vivo; settings: single administration of 450 mg/kg to rat
From the text: Toxicity by single administration to rat

In the case of `Cl.N#CN=C(Nc1ccc(N)nc1)N[C@@H]1C[C@@H]2CC[C@H]1C2` [hydrochloride of (+)-N-(6-amino-3-pyridyl)-N''-cyano-N'-[(1S] [hydrochloride of (+)-N-(6-amino-3-pyridyl)-N''-cyano-N'-[(1S,2R,4R)-2-norbornyl]guanidine], the vasodepressor action [1] is reported as 33% and the death case [2] is reported as “did not result in a death case”.
